Test results as given in ChEMBL document CHEMBL5442741, “ASAP - In vitro kinase profile” (2024).
Several values for one entry are separate records, joined by “and”; a condition that tells them apart may be missing. Identical values can stand only once.

Experiments:
[1] = molecular target: Ribosomal protein S6 kinase alpha-1 (Homo sapiens) (UniProt Q15418); experiment: Enzymatic radiometric [Km ATP] KinaseProfiler LeadHunter assay, kinase: Rsk1, catalogue number: 14-509KP The assay has been performed by Eurofins Discovery.; details: ATP concentration 45.0 uM, Test compound concentration 10.0 uM
[2] = molecular target: T1, Mitogen-activated protein kinase kinase kinase 5 (Homo sapiens) (UniProt Q99683); experiment: Enzymatic radiometric [Km ATP] KinaseProfiler LeadHunter assay, kinase: ASK1, catalogue number: 14-606KP The assay has been performed by Eurofins Discovery.; details: ATP concentration 200.0 uM, Test compound concentration 10.0 uM
T1 sequence (whole entry): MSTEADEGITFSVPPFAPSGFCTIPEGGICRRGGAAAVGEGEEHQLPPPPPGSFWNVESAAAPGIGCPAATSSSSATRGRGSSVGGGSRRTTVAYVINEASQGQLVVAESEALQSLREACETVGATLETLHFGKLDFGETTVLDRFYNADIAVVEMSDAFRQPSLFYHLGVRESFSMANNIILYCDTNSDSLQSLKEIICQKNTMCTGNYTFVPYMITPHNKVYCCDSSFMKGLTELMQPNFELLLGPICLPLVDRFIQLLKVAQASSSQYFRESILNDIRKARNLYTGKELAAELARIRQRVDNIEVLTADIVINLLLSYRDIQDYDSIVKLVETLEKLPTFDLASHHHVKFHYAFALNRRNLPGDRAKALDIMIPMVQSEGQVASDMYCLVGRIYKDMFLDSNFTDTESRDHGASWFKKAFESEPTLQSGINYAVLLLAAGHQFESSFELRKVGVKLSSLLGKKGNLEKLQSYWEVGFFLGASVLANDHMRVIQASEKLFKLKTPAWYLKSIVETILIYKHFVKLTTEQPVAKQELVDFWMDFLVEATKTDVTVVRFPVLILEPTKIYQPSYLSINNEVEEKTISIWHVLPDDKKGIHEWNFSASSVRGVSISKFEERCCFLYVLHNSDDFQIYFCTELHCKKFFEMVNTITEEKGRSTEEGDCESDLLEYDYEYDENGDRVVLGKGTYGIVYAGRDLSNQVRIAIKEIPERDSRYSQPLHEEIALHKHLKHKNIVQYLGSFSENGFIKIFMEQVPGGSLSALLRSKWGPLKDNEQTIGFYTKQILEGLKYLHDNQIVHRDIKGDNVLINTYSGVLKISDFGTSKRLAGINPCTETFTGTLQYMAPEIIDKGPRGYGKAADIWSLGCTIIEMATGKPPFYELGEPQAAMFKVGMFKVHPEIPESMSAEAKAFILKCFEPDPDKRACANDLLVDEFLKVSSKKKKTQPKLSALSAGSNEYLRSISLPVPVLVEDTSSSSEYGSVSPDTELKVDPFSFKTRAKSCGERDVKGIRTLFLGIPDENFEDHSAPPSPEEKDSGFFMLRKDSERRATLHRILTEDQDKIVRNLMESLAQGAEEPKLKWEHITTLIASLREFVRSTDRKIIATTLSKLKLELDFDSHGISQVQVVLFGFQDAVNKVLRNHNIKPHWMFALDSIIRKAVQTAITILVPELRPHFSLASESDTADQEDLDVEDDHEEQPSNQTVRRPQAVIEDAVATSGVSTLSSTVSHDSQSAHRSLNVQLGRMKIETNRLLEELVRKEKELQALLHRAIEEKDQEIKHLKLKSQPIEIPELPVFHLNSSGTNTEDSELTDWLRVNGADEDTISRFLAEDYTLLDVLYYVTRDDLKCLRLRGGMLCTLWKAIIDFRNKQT

[3] = molecular target: Protein kinase C alpha type (Homo sapiens) (UniProt P17252); experiment: Enzymatic radiometric [Km ATP] KinaseProfiler LeadHunter assay, kinase: PKC-alpha, catalogue number: 14-484KP The assay has been performed by Eurofins Discovery.; details: ATP concentration 45.0 uM, Test compound concentration 10.0 uM
[4] = molecular target: CDK9/cyclin T1 (Homo sapiens) (UniProt O60563+P50750); experiment: Enzymatic radiometric [Km ATP] KinaseProfiler LeadHunter assay, kinase: CDK9/cyclin T1, catalogue number: 14-685KP The assay has been performed by Eurofins Discovery.; format: protein-complex assay; details: ATP concentration 45.0 uM, Test compound concentration 10.0 uM

Chain of Ribosomal protein S6 kinase alpha-1 (Homo sapiens) (Q15418 whole entry): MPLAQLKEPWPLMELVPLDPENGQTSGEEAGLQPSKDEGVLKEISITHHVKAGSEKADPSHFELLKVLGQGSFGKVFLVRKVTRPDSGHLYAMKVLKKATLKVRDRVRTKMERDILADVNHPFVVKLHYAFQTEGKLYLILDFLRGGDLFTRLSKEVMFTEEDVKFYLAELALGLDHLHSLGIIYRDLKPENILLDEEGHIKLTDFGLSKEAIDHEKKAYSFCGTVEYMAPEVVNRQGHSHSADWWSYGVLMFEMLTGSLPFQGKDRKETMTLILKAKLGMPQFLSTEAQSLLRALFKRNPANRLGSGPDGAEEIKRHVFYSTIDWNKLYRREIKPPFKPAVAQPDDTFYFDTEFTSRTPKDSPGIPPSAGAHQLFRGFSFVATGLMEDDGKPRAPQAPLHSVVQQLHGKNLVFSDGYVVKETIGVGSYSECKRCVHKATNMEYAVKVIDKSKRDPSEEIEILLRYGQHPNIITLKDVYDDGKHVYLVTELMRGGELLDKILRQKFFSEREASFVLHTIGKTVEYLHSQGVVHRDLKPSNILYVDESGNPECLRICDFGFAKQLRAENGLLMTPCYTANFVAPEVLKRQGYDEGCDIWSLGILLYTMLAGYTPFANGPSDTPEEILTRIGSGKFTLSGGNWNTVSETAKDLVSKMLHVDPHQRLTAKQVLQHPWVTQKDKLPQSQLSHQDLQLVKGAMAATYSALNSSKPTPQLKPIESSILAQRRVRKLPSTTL

CNC(=O)Cn1cc(-c2cc3c(N[C@@H](c4ccc5c(c4)S(=O)(=O)CCC5)C(C)C)ncnc3[nH]2)cn1
Activity [1]: 94% | Activity [2]: 103% | Activity [3]: 95% | Activity [4]: 61%

CC(C)[C@@H](Nc1ncnc2[nH]ccc12)c1ccc2c(c1)S(=O)(=O)CCC2
Activity [1]: 92% | Activity [2]: 108% | Activity [3]: 104% | Activity [4]: 114%

Cc1nn(C)cc1-c1cc2c(N[C@H](c3ccc4c(c3)S(=O)(=O)CCC4)C(C)C)ncnc2[nH]1
Activity [1]: 110% | Activity [2]: 103% | Activity [3]: 93% | Activity [4]: 57%

Cn1ncc(-c2cc3c(N[C@@H](c4ccc5c(n4)OCCO5)C(C)(C)C)ncnc3[nH]2)c1C#N
Activity [1]: 136% | Activity [2]: 108% | Activity [3]: 87% | Activity [4]: 130%

CC(C)[C@H](Nc1ncnc2[nH]c(-c3cnn(C)c3C#N)cc12)c1ccc2c(n1)OCCO2
Activity [1]: 120% | Activity [2]: 106% | Activity [4]: 79%

CNCc1cc(-c2cc3c(N[C@@H](c4ccc5c(c4)S(=O)(=O)CCC5)C(C)C)ncnc3[nH]2)co1
Activity [1]: 90% | Activity [3]: 99% | Activity [4]: 40%

COc1ccc([C@H](Cc2nnn[nH]2)NC(=O)c2ncnc3[nH]ccc23)cc1
Activity [1]: 102% | Activity [2]: 103% | Activity [3]: 93% | Activity [4]: 109%

COc1ccc([C@@H](Cc2nnn[nH]2)NC(=O)c2ncnc3[nH]ccc23)cc1
Activity [1]: 98% | Activity [2]: 101% | Activity [3]: 95% | Activity [4]: 117%

CC(C)[C@H](Nc1ncnc2[nH]ccc12)c1ccc2c(c1)S(=O)(=O)CCC2
Activity [1]: 102% | Activity [2]: 105% | Activity [3]: 98% | Activity [4]: 112%

CC(C)[C@@H](Nc1ncnc2[nH]c(-c3cnn(C)c3C#N)cc12)c1ccc2c(n1)OCCO2
Activity [3]: 90% and 99%

C[C@H](C(=O)O)[C@@H](NC(=O)c1ncnc2[nH]ccc12)c1ccc(Br)cc1
Activity [1]: 88% | Activity [2]: 102% | Activity [3]: 108% | Activity [4]: 103%

CC(C)[C@@H](Nc1ncnc2[nH]c(C(=O)N[C@@H]3CCN(C)C3)cc12)c1ccc2c(c1)S(=O)(=O)CCC2
Activity [1]: 94% | Activity [2]: 105% | Activity [3]: 101% | Activity [4]: 108%
